The text below walks through data of patent US7393848B2, “Certain heterocyclic substituted imidazo[1,2-A]pyrazin-8-ylamines and methods of inhibition of Bruton's tyrosine kinase by such compounds” (CGI Pharmaceuticals, Inc., priority 2003, dated 2008).

This test has as its target T1, full length human wildtype Btk (Homo sapiens, UniProt Q06187).
T1 construct: V5 (C); 6xHis (C); made in house; host or cells: Sf9 insect cells (baculovirus, pFastBac / Bac-to-Bac)
The test is described as follows: Biochemical Btk Assay (time-resolved fluorescence kinase assay). The settings on record: 40 μM ATP, 1 hour at room temperature; read-out: IC50 value in the Btk biochemical assay of Example 7. As for the experimental part:
A generalized procedure for one standard biochemical Btk Kinase Assay used to test compounds disclosed in this application is as follows.
A master mix minus Btk enzyme is prepared containing 1× Cell Signaling kinase buffer (25 mM Tris-HCl, pH 7.5, 5 mM […]-glycerophosphate, 2 mM dithiothreitol, 0.1 mM Na3VO4, 10 mM MgCl2), 0.5 μM Promega PTK Biotinylated peptide substrate 2, and 0.01% BSA. A master mix plus Btk enzyme is prepared containing 1× Cell Signaling kinase buffer, 0.5 μM PTK Biotinylated peptide substrate 2, 0.01% BSA, and 100 ng/well (0.06 mU/well) Btk enzyme. Btk enzyme is prepared as follows: full length human wildtype Btk (accession number NM-000061) with a C-terminal V5 and 6× His tag was subcloned into pFastBac vector for making baculovirus carrying this epitope-tagged Btk. […] A quantity of 1.25 μL of compounds in 5% DMSO is transferred to a 96-well ½ area Costar polystyrene plate. […] A quantity of 18.75 μL of master mix minus enzyme (as a negative control) and master mix plus enzyme is transferred to appropriate wells in 96-well ½ area costar polystyrene plate. […] The plate is read using time-resolved fluorescence with a Perkin Elmer Envision using excitation filter 330 nm, emission filter 665 nm, and 2nd emission filter 615 nm. IC50 values are subsequently calculated.

T1 sequence (Q06187 whole entry): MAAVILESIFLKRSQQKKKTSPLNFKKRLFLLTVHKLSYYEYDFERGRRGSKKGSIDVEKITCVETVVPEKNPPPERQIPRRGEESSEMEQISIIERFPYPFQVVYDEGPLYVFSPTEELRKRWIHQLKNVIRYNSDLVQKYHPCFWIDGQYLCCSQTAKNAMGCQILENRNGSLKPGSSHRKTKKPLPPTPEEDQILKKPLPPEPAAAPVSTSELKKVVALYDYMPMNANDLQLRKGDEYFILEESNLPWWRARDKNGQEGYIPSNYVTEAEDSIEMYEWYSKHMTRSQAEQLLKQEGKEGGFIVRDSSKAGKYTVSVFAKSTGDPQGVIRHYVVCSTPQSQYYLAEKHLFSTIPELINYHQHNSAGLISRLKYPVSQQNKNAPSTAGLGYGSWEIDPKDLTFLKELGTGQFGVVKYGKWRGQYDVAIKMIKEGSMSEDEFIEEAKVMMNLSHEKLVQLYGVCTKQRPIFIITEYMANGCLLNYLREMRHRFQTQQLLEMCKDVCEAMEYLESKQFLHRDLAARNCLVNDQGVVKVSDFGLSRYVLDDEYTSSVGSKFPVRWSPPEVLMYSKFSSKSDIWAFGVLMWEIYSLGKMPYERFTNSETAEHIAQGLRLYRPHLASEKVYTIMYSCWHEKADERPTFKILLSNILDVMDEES

Usually IC50 stands for the concentration at which inhibition is half-maximal. Consider `CC(C)(C)c1ccc(C(=O)Nc2cccc(-c3cn4ccnc4c(Nc4ccc5[nH]ncc5c4)n3)c2)cc1` [Example 6], for which the IC50 is below 1000 nM.
